Assay results published in patent publication US11540539B2, “Reduced sodium food products” (GENERAL MILLS, INC., priority 2013, dated 2023).

Experiments:
perception of saltiness [1] = test: Broth DAP test: trained panel rates saltiness of compounds in simple broth; assay type: in vivo; conditions: individual compounds in simple broth; DAP score greater than 7.6 indicates saltiness or salt enhancement
Description: (§1) Briefly, each individual tested compound was placed in water and in sodium solution to test saltiness and saltiness enhancement potential. Tests in water were executed in a compound concentration of 10 ppm. Tests in sodium solution were executed in compound concentrations of 0.1, 1 and 10 ppm. Two control sodium solutions with known organoleptic salt intensities were provided as references for each test. The test for individual compounds was also conducted using simple broth instead of sodium solution. A number of compound combinations identified from the Na-solution DAP test were used for the broth DAP test. Tests were executed with a trained panel of 9-12 assessors. For Na-solution DAP tests, a DAP score of greater than 3.1 indicates saltiness or salt enhancement. The DAP score can be correlated with a sodium reduction potential by subtracting 3.1 from the DAP score.

perception of saltiness [2] = test: Na-solution DAP test: trained panel rates saltiness of compounds in sodium solution; assay type: in vivo; conditions: individual compounds in sodium solution; compound concentrations of 0.1, 1 and 10 ppm; DAP score greater than 3.1 indicates saltiness or salt enhancement
Description: as §1

Compound	DAP in Broth (perception of saltiness [1])	DAP in Na-Sol. (perception of saltiness [2])
C=C[C@@]1(C)CC(=O)C2[C@]3(C)C(C[C@@H](O)[C@@]2(O)C1=O)C(C)(C)[C@H](OC(C)=O)[C@H](OC(C)=O)[C@@H]3OC(=O)c1ccccc1 (stereo partly drawn) [Compound 32]	8.1	
CC(C)C(=O)c1c2c(c3oc(=O)cc(-c4ccccc4)c3c1O)CC(C(C)(C)O)O2 (stereo not drawn) [Compound 60]	8.1	3.8
CC/C=C\C=C\C(O)C/C=C\CCCCCCCC(=O)O (stereo not drawn) [Compound 86]	8.0	3.9
CC1(C)CC[C@]2(C(=O)O)CC[C@]3(C)C(=CCC4[C@@]5(C)C[C@@H](O)[C@H](O)C(C)(C)C5CC[C@]43C)C2C1 (stereo partly drawn) [Compound 42]	8.1	3.1
CCCCCCCCCCC[C@@H](O)CC(=O)CCc1ccc(O)c(OC)c1 [Compound 1]	7.8	
COc1c2ccoc2c(OCC=C(C)C)c2oc(=O)ccc12 [Compound 65]	7.9	3.3
CC(C)CNC(=O)/C=C/C=C/CCCCCC/C=C/c1ccc2c(c1)OCO2 [Compound 15]	8.1	3.5
CCCCCC(CC(CCc1ccc(O)c(OC)c1)OC(C)=O)OC(C)=O (stereo not drawn) [Compound 3]	8.8	
COc1c2ccoc2cc2oc(=O)ccc12 [Compound 62]	78.0	3.9
CC/C=C\C/C=C\C=C\[C@H](O)CCCCCCCC(=O)O [Compound 85]		2.9
CCCCCCCC/C=C/C(O)CCCCCCC(=O)OCC(O)CO (stereo not drawn) [Compound 87]	8.0	
COc1cc2c(c(OC)c1OC)-c1c(cc(OC)c(OC)c1OC)C[C@H](C)[C@H](C)C2 [Compound 45]	8.2	
CCC/C=C\C/C=C\CCCC/C=C\Cc1cc(O)cc(O)c1 [Compound 10]	7.9	
COc1cc2c(c(OC)c1OC)-c1c(cc3c(c1OC)OCO3)CC(C)C(C)C2 (stereo not drawn) [Compound 46]	7.8	
COc1cc2c(c(OC)c1OC)-c1c(cc3c(c1OC)OCO3)C[C@H](C)[C@@](C)(O)C2 [Compound 44]	8.6	3.8
COC1CC(OC2CCC3(C=O)C(CCC4C3CCC3(C)C(C5=CC(=O)OC5)CCC43O)C2)OC(C)C1OC1OC(CO)C(O)C(O)C1O (stereo not drawn) [Compound 76]	8.0	3.2
COc1cc(O)c(C(C)=O)c(OC)c1 [Compound 53]	8.5	
O=C(/C=C/C=C/c1ccc2c(c1)OCO2)N1CCCCC1 [Compound 18]	8.1	
COc1cc(CC/C=C/C(=O)CCc2ccccc2)ccc1O [Compound 11]	8.1	
C=CCCCCCCC(C(=O)O)C(O)CC(=O)O (stereo not drawn) [Compound 81]	7.8	3.2
CC(=O)OC1CCC2(C)C(COc3ccc4ccc(=O)oc4c3)C(C)(O)CCC2C1(C)C (stereo not drawn) [Compound 66]	7.8	3.2
CCCCCCCCC/C=C/C(=O)CCc1ccc(O)c(OC)c1 [Compound 2]	7.8	
C/C=C1\C(=O)CC2C3CCC4=CC(=O)CCC4(C)C3CCC12C (stereo not drawn) [Compound 75]		3.6

Compound	DAP in Broth (perception of saltiness [1])	DAP in Na-Sol. (perception of saltiness [2])
CCCCC/C=C\CCCCCCc1cc(=O)c2ccccc2n1C [Compound 16]	8.0	
COc1cc(C2c3cc4c(cc3CC3COC(=O)C32)OCO4)cc(OC)c1OC (stereo not drawn) [Compound 59]	7.9	3.3
C=CC(C)(O)CCC1(C)C2=C(C(OC(C)=O)C(OC(C)=O)C1C)C(C)(C)CCC2 (stereo not drawn) [Compound 29]	8.0	
CC(C)=CCOc1c2occc2cc2ccc(=O)oc12 [Compound 64]	7.8	3.7
C/C=C(\C)C(=O)O[C@H]1[C@H](O)[C@]2(CO)[C@H](O)C[C@]3(C)C(=CCC4[C@@]5(C)CC[C@H](O[C@@H]6O[C@H](C(=O)O)[C@@H](O[C@@H]7O[C@H](CO)[C@@H](O)[C@H](O)[C@H]7O)[C@H](O)[C@H]6O[C@@H]6O[C@H](CO)[C@@H](O)[C@H](O)[C@H]6O)[C@](C)(CO)C5CC[C@]43C)[C@@H]2CC1(C)C (stereo partly drawn) [Compound 34]	7.7	
COc1cc(CCC(O)CC(=O)CCc2ccccc2)ccc1O (stereo not drawn) [Compound 12]	7.6	
C=CCCCCCCCCCCC[C@H](O)C[C@H](O)CO [Compound 82]	8.3	3.8
C[C@H]1[C@H](C)CC[C@]2(C(=O)O)CC[C@]3(C)C(=CC[C@@H]4[C@@]5(C)CC[C@H](O)C(C)(C)[C@@H]5CC[C@]43C)[C@H]12 [Compound 43]	8.0	
CC(C)(O)C(O)COc1c2ccoc2cc2oc(=O)ccc12 (stereo not drawn) [Compound 63]	8.0	
COc1cc(CNC(=O)CCCCCCC(C)C)ccc1O [Compound 21]		4
CC(=O)OC1C(O)COC(OC2C(O)C(C)OC(OC(C)(CCC=C(C)C)C3C(O)CC4(C)C3CCC3C5(C)CCC(OC6OCC(O)C(O)C6O)C(C)(C)C5CCC34C)C2O)C1O (stereo not drawn) [Compound 38]	8.1	3.9
C=CCCCCCCCCCCCC(CC(O)COC(C)=O)OC(C)=O (stereo not drawn) [Compound 83]	8.1	4.2
CC1CCC2(OC1)OC1CC3C4CCC5CC(OC6OC(CO)C(OC7OC(CO)C(O)C(OC8OC(CO)C(O)C(OC9OCC(O)C(O)C9O)C8O)C7O)C(OC7OCC(O)C(O)C7O)C6O)CCC5(C)C4CC(=O)C3(C)C1C2C (stereo not drawn) [Compound 37]	8.1	3.7
COc1cc2oc(=O)ccc2c(OC)c1CC=C(C)C [Compound 28]		3.6
CCCCC/C=C/C=C/C(O)CCCCCCCC(=O)O (stereo not drawn) [Compound 88]	8.0	
C=CC(C)(O)CC/C=C(\C)C(=O)OC1C(OCC2OC(OC(=O)C34CCC(C)(C)CC3C3=CCC5C6(C)CCC(OC7OC(COC8OCC(O)C(O)C8OC8OCC(O)C(O)C8O)C(O)C(O)C7O)C(C)(C)C6CCC5(C)C3(C)CC4O)C(OC3OC(C)C(OC4OCC(O)C(OC5OCC(O)C(O)C5O)C4O)C(O)C3O)C(OC(=O)/C(C)=C/CCC(C)(O)C=C)C2O)OC(C)C(O)C1O (stereo not drawn) [Compound 35]	8.1	3.7
COc1cc(COC(=O)CCCC/C=C/C(C)C)ccc1O [Compound 13]	7.9	
CCCCCCCCCCNC(C)=O [Compound 84]	8.1	3.8
CC(=O)O[C@@H]1CC2C(C)(C)C(=O)C=C[C@]2(C)C2CC[C@]3(C)C(=CC(=O)C3c3ccoc3)[C@@]21C (stereo partly drawn) [Compound 74]	7.7	3.2
COc1cc(CC(C)C(C)Cc2ccc(O)c(OC)c2)ccc1O (stereo not drawn) [Compound 49]	8.2	
COC1CC(OC2CCC3(C=O)C(CCC4C3CCC3(C)C(C5=CC(=O)OC5)CCC43O)C2)OC(C)C1O (stereo not drawn) [Compound 77]	8.1	3.4
C[C@]12CC[C@H](O)C[C@H]1CC[C@@H]1[C@@H]2CC[C@]2(C)[C@@H](C3=CC(=O)OC3)CC[C@]12O [Compound 73]	8.0	3.5
